{"source": "patent US20260207551A1", "about": "“PHOSPHOGLICERATE DEHYDROGENASE INHIBITORS FOR THE TREATMENT OF FIBROSIS” (CHIESI FARMACEUTICI S.P.A., priority 2022, published 2026)", "key": {"[1]": {"test": "Plasma exposure after the last dose in bleomycin model (Example 5)", "format": "in vivo, Male C57BL6/J mice", "details": "0.5 h, 2 h and 7 h", "experimental": "The Bioanalysis of Compound 19 in plasma was carried out under the same experimental conditions as reported in Example 3.\nPlasma exposure of Compound 19 was determined following the last oral dose at three timepoints (0.5 h, 2 h and 7 h)."}, "collagen I (Col-I)": {"test_system": "collagen I (Col-I)", "test": "TGF-b induced Collagen I expression in NHLFs (Western blot)", "format": "cell-based, Human", "details": "NHLF", "from_the_text": "(§1) The antifibrotic activity of compounds of the present invention has been monitored measuring the expression of fibrotic mediators, collagen I (Col-I) and alpha smooth muscle actin (α-SMA) after treatment in lung cells with TGF-β in comparison with Nintedanib (see Frank Hilberg et al, Cancer Res 2008 Jun. 15; 68(12):4774-82), and allosteric inhibitor NCT-503 (see Hamanaka et al., Am J Respir Cell Mol Biol. 2018 May; 58(5):585-593).\n(§2) Human normal lung fibroblasts (NHLFs) were purchased from Lonza (Basel, Switzerland). NHFLs were cultured in Eagle's Minimum Essential medium (EMEM) w/o serine and glycine, supplemented with 10% Fetal Bovine Serum (FBS), antibiotics (50 U/ml penicillin and 0.05 mg/ml streptomycin) and 2 mM L-glutamine, in an atmosphere of 95% air and 5% CO2 at 37° C. NHLFs cultures were used between passage 1 and 9. Before all the experiments, cells were incubated overnight in serum-free medium.\nNHLFs were seeded in 12-well plates at cultured until 70% of confluency. To examine the expression of fibrotic markers, cells were treated with different concentrations of Compounds and NCT-503 in EMEM medium for 1 h followed by stimulation with TGF-β for 48 h at 37° C., 5% CO2. […] Detection and quantification were performed with Odyssey imaging system (Li-cor) using GAPDH as loading control."}, "[2]": {"test_system": "alpha smooth muscle actin (α-SMA)", "test": "TGF-b induced α-SMA expression in NHLFs (Western blot)", "format": "cell-based, Human", "details": "NHLF, TGF-β (10 ng/ml) 48 h", "from_the_text": "as §1, §2\nNHLFs were seeded in 12-well plates at cultured until 70% of confluency. To examine the expression of fibrotic markers, cells were treated with different concentrations of Compounds and NCT-503 in EMEM medium for 1 h followed by stimulation with TGF-β for 48 h at 37° C., 5% CO2. Following cell treatments, medium was removed and whole cell extracts were prepared by directly adding to the well the 1× loading buffer (125 mM Tris-HCl pH 6.8, 4% SDS, 0.2% Orange G, 50% glycerol, 2.5% β-mercaptoethanol, Li-cor Biosciences), boiled for 5 min and then electrophoresed on Mini protean TGX gel 4-12% (Biorad). After electrophoresis, proteins were transferred to a nitrocellulose membrane. Immunodetection of Col-I, α-SMA and glyceraldeide 3-phosphate dehydrogenase (GAPDH) were obtained by using mouse anti-CollA1 (Santacruz), mouse anti-α-SMA (sigma) and rabbit anti-GAPDH (Cell Signaling Technology) all diluted at 1:1000 in TBS-tween 0.1%. […] Detection and quantification were performed with Odyssey imaging system (Li-cor) using GAPDH as loading control."}}}
{"molecule": "CC(C)C(C(=O)O)c1ccc(C2(NC(=O)c3cc4c(Cl)c(Cl)ccc4n3C)CCOC2)cc1", "note": "(racemic) [Compound 19, (±)-2-(4-(3-(4,5-Dichloro-1-methyl-1H-indole-2-carboxamido)tetrahydro-furan-3-yl)phenyl)-3-methylbutanoic acid]", "values": [{"measurement": "plasma exposure following the last oral dose", "setting": "[1]", "value": "good oral exposure"}, {"measurement": "IC50", "setting": "collagen I (Col-I); Homo sapiens, TGF-β 48 h, confidence interval in brackets, read-out: TGF-b induced Collagen I (pIC50-C.I.) (converted)", "value": 31.6, "unit": "nM"}, {"measurement": "FMT induced by TGF-β, Collagen protein expression (FIG. 1)", "setting": "collagen I (Col-I)", "value": "decrease of Collagen protein expression"}, {"measurement": "inhibition of release of α-SMA (comparison, FIG. 2)", "setting": "[2]; Compound 19 50 uM vs NCT-503 50 uM and Nintedanib 1 uM", "value": "in a more efficacious manner than the NCT-503 (50 uM) and even more than the Nintedanib (1 uM)"}, {"measurement": "inhibition at 50 µM", "setting": "[2]; Homo sapiens, 50 uM, read-out: TGF-b induced a-sma (% inh. 50 uM)", "value": 97, "unit": "%"}]}
